Measured values from US20250281392A1, “TOPICAL DELIVERY OF EPINEPHRINE AND PRODRUG COMPOSITIONS” (Aquestive Therapeutics, Inc., priority 2024, published 2025).
Structures can show the parent of a compound that is named as a salt. One block for each compound: values may come before it.

Assays:
TNFα, IL-10 = conditions: cited from earlier work
NK cells = assay: NK activation assay, CD25+CD69+ NK cells by flow cytometry; type: cell-based, human; conditions: for % inactivation relative to vehicle: human NK % CD25+CD69+ cells
Protocol: IC50 is a measurement of how much of a drug is needed to inhibit a biological process by half.
Peripheral blood mononuclear cells (PBMC) were isolated over a density gradient from six donor buffy coats and CD56+NK were separated using magnetic selection. Purity of sorted NIK cells was assessed by flow cytometry using CD56 as a marker of NK cells.
Following magnetic isolation, NK cells were seeded at 5×10^5 NK cells per well in a 48 well plate alongside NK activation beads (prepared as per manufacturer's protocol) at a 1:1 bead to cell ratio, IL-2 (final concentration 500 IU/ml) and either prodrug/epinephrine at 5 different doses (see section 3.6 below for further details), cortisol/dexamethasone (positive controls) or vehicle (media only). NK cells were cultured with the NK activation beads for two days at 37° C. in the presence of 5% CO2. After two days, supernatants were collected from each condition for future TR-FRET analysis (AQV-24-001_AM-1 only, see below) and the remaining cells from each condition were assessed for expression of surface markers CD25, CD69 and for cell viability using eBioscience™ Fixable Viability Dye. Samples were then treated with eBioscience Intracellular Fixation & Permeabilization Buffer Set to allow staining of intracellular granzyme B. Marker expression was determined by flow cytometry and appropriate “Fluorescence-Minus-One controls” controls were used. Flow cytometry data was analysed using FlowJo analysis software and data was graphed using Graph Pad Prism.
The study was performed in: 3 donors Each experimental condition was tested in: singlicate. For Flow cytometry, viability was measured and cells were phenotyped for NK cell activation (CD25, CD69, granzyme B). Raw and analysed data are provided.
Each experimental condition was tested in: singlicate. For Flow cytometry, viability was measured and cells were phenotyped for NK cell activation (CD25, CD69, granzyme B). Raw and analysed data are provided. Supernatants were harvested in triplicate per condition and stored until further analysis of IFNγ content by TR-FRET. Data was analysed and graphed. Raw and analysed data are provided. […]

[1] = Ex vivo permeation and flux of epinephrine prodrug topical gels through porcine ear tissue; type: in vitro ADME; conditions: topical gel containing 0.5% or 5.0% (w/w) dipivefrin HCl; 400 μm tissue
Protocol: Both in vitro and ex vivo permeation was measured for the following formulation. […]
Exemplary formulations were evaluated including Formulations 1-3, with API loading from 2.5-10% w/w.
The claimed topical compositions were tested for permeation using both porcine ear and buccal tissue.
The tested tissues were Porcine Ear vs. Buccal Tissue through 24 hours.

[2] = Ex vivo permeation of ondansetron formulation through dermatomed porcine ear (tissue thickness / tissue type); type: in vitro ADME
Protocol: Referring to FIG. 2A (through 6 hour timepoint) and FIG. 2B (through 24 hour timepoint), dermatome sectioning of the porcine ear was conducted to sample membranes of varying thickness that both capture the complete epidermis and a varying thickness of the dermis. Dermatome sectioning completed at 200 μm, 300 μm, and 400 μm to provide membranes of a varying total thickness.
As porcine tissue varies with regard to stratum corneum and epidermal thickness as a function of sampling location, multiple sampling locations have been selected for comparison. Dermatome sectioning of multiple porcine tissue samples at a constant thickness. Dermatome sectioning completed at 400 μm. Tissue types evaluated included porcine ear, shoulder, rump, and belly locations
Referring to FIG. 3A (through 400 minutes) and FIG. 3B (through 1500 minutes), the average amount of ondansetron permeated (in ug) is measured as a function of time. The permeation is measured through varying intact porcine ear tissue types at constant thickness (400 um total thickness). […] Given the comparably low standard deviation and the lack of ondansetron detected in the receiver media at t=0 minutes compared to other tissue types, this tissue type has been selected for continued ex-vivo permeation method development.

[3] = design: species or system Sinclair Nanopigs; conditions: in vivo
Protocol: A study was conducted to evaluate the systemic pharmacokinetic characteristics of Dipivefrin Topical Gel when administered once by topical application to intact, abraded, and wounded skin of Sinclair Nanopigs™. The study design was as follows. Animals were food fasted for at least 8 hours. Animals were monitored until fully recovered. Anesthesia procedures were documented and retained in the study data. The dose formulations were administered to appropriate animals by topical application on the dorsal surface (Dose Site #1) once on Day 1. The dose site was and/or shaved and marked at least one day prior to Day 1. At least the four corners of the dose sites will be marked with indelible ink based on the appropriate dose area. At least the four corners of the tape stripping area were marked with indelible ink for Group 2 and 3 animals. The site for Group 2 and 3 animals was gently abraded via tape stripping (conducted 50 times). All animals will have a uniform topical application using a gloved hand and/or spatula to rub the entire dose amount throughout the total dose area (for 1 minute). Topical application to the dose area for Group 4 animals will include application of the dose amount over the created wounds. If an animal is observed to have test material remaining following the application time, the observation will be documented. Dose formulations will be allowed to equilibrate at ambient temperature for at least 15 minutes prior to and continuously throughout dose administration Prior to dermal (topical) application on Day 1, the dose site for Group 1 to 3 animals were wiped clean with water-moistened gauze or paper towels then wiped dry with dry gauze or paper towels. Following washing and drying, […]. On Day 1, Group 4 animals: The animal backs were prepared for wound creation by performing a surgical scrub. Two (2) wounds were created on the dorsal surface of each Group 4 animal within a 7×7 cm area using an 8 mm punch biopsy. Steps were taken to ensure the area designated for wound creation is within the total dose area (8×8 cm). […]

IL-1b, IL-10 = conditions: cited from earlier work
[4] = Stability of topical gel formulations (assay and degradant generation at 25° C./60% RH and 40° C./75% RH); type: physicochemical; conditions: Formulation 1, 5% w/w API; accelerated conditions 40° C./75% RH
Protocol: An exemplary formulation is provided below.
Multiple dipivefrin gel formulations were evaluated. Formulations 1-3: API loading ranging from 2.5-10% w/w. Formulation 4: Reduced ethyl alcohol (50%) of original loading. Formulation 5: Reduced diethylene glycol monoethyl ether (50%) of original loading. Formulation 6: Reduced propylene glycol (50%) of original loading.
The stability of the topical formulation was tested in two assays. Formulation 1 was evaluated with API loading of 5% w/w. Assay trends are directed downward under accelerated conditions (40° C./75% RH)
Stability trends for a claimed topical formulation (AQEP-09) was evaluated by measuring degradant generation. Formulation 1 was tested with API loading of 5% (% w/w).
The following formulations are exemplary.

[5] = tissue thickness 200 μm, donor cell empty
[6] = tissue thickness 400 μm, donor cell filled

SMILES: NC[C@H](O)c1ccc(O)c(O)c1 [norepinephrine]
IL-10 secretion (TNFα, IL-10): inducing rapid IL-10 secretion | TNFα (TNFα, IL-10): potently suppresses

SMILES: C[C@@H]1C[C@H]2[C@@H]3CCC4=CC(=O)C=C[C@]4(C)[C@@]3(F)[C@@H](O)C[C@]2(C)[C@@]1(O)C(=O)CO [Dexamethasone]
% inactivation relative to vehicle (NK cells; 200 nM): 22% | % inactivation relative to vehicle (NK cells; 1 μM): 19%

SMILES: C[C@]12CCC(=O)C=C1CC[C@@H]1[C@@H]2[C@@H](O)C[C@@]2(C)[C@H]1CC[C@]2(O)C(=O)CO [Cortisol]
% inactivation relative to vehicle (NK cells; 200 nM): 39%

ex vivo permeation through porcine ear tissue [1]: Significant permeation
SMILES: CNCC(O)c1ccc(OC(=O)C(C)(C)C)c(OC(=O)C(C)(C)C)c1 (centres unmarked) [Dipivefrin HCl]

Amount Ondansetron Permeated, 6 hours [2, 5]: 21.2 (±2.5) μg | Amount Ondansetron Permeated, 24 hours [2, 5]: 542.4 (±74.3) μg | Amount Ondansetron Permeated, 6 hours [2, 6]: 5.7 (±3.9) μg | Amount Ondansetron Permeated, 24 hours [2, 6]: 43.8 (±19.4) μg
SMILES: Cc1nccn1CC1CCc2c(c3ccccc3n2C)C1=O (centres unmarked) [Ondansetron]

SMILES: CNC[C@H](O)c1ccc(O)c(O)c1 [Epinephrine]
CD25+CD69+ NK cells compared to vehicle (NK cells; 5 doses, 6 donors (donor 1 removed)): consistent reduction | % inactivation relative to vehicle (NK cells; 500 nM): 65% | % inactivation relative to vehicle (NK cells; 1000 nM): 61% | % inactivation relative to vehicle (NK cells; 2500 nM): 51% | suppression of activation of NK cells, Epinephrine and Dipivefrin combined for analysis (NK cells; range of concentrations, exceeding IC50 at 70, 140 and 280 nM): effective suppression | wounded to intact skin ratio for Cmax, epinephrine plasma ([3]; Sinclair Nanopig, pig, topical or ocular): 3.90 | PK parameters in plasma, intact skin versus abraded skin [3]: no significant difference | serum concentrations of IL-10 (IL-1b, IL-10; humans): increases serum concentrations | serum concentrations of IL-1b (IL-1b, IL-10; septic patients following treatment): decreased serum concentrations of IL-1b

degradant formation trends (epinephrine, PD-15, RRT 1.80) [4]: directed upward
SMILES: CNCC(O)c1ccc(OC(=O)C(C)C)c(OC(=O)C(C)C)c1 (centres unmarked) [AQEP-09, Dibutepinephrine]
